Reference: publication PMC11494886, “Discovery and design of molecular glue enhancers of CDK12–DDB1 interactions for targeted degradation of cyclin K” (RSC Chemical Biology, 2024)
Read-outs that look alike come from different tables or passages of the source.

Assays:
cyclin K [1] = experiment: Immunoblot of cyclin K levels in MDA-MB-231 cells; type: cell-based, human; settings: SR-4835 500 nM, SR-4784 1-2 μM 2 hours, SR-4784-PAP 2 μM 2 hours
Protocol: THZ531 was used as a negative control as it is known to make a covalent bond with Cys1039 in a C-terminal extension of the kinase domain, thereby preventing this helix-loop-helix (HLH)-like fold from binding in a cleft between the DDB1 BPA and BPC domains (Fig. 1B, right panels). […] An immunofluorescence-based assay developed for visualizing loss of nuclear cyclin K also confirmed the above observations (Fig. 1H and Fig. S1, ESI ^†).
Total cell lysates were prepared using RIPA lysis buffer (Millipore Sigma) supplemented with protease and phosphatase inhibitors (Roche). Protein concentrations were estimated using the BCA protein assay kit (Pierce, Thermo Fisher Scientific). Equal amounts of proteins were separated using NuPAGE 4–12% Bis-Tris gels (Thermo Fisher Scientific). For CLICK chemistry pulldown experiments, proteins in the eluates were resolved using 3–8% Tris–acetate gels (Thermo Fisher Scientific). Proteins were transferred to nitrocellulose membranes using NuPAGE transfer buffer (Thermo Fisher Scientific). Membranes were blocked in LI-COR blocking buffer for 1 hour at room temperature and then probed with primary antibodies diluted in the same blocking buffer overnight at 4 °C. To detect the primary antibodies, membranes were incubated with IR-680 or IR-800 conjugated secondary antibodies (LI-COR) diluted in LI-COR blocking buffer at room temperature for 1 hour. Washes with 0.01% Tween-phosphate buffer were performed after primary and secondary antibody incubation steps. Signals from the membrane were recorded by scanning on a LI-COR Odyssey imager. Bands were quantified using Image Studio Lite (LI-COR Biosciences) or the ImageJ program.
To visualize the degradation of cyclin K, total cell lysates were subjected to SDS-PAGE and western blotting.

cyclin K [2] = experiment: Immunofluorescence of nuclear cyclin K in MDA-MB-231 cells; type: cell-based, human
Protocol: Cells were fixed with 4% PFA in PBS at room temperature, permeabilized with 0.1% Triton X-100 in PBS, and blocked with 3% BSA in PBS at room temperature. Cells were incubated with primary antibodies overnight at 4 °C, followed by incubation with Alexa-Fluor conjugated secondary antibodies for 1 hour at room temperature. Cell nuclei were stained using DAPI. Images were acquired on a confocal microscope (Leica). ImageJ and QuPath were used for image analysis.
Figure S8. Immunofluorescence staining for cyclin K degradation. MDA-MB-231 cells were
treated for 2 h with either DMSO or the indicated compounds (0.5 µM) . Cells were fixed and
Nuclei were stained with DAPI (blue). […]

CDK12/cyclin K + DDB1 = biological target: T1, CDK12/cyclin K + DDB1 (Homo sapiens, UniProt Q16531+Q9NYV4, DEL396-705); experiment: Microscale thermophoresis, ternary complex formation; type: binding; settings: MST
T1 construct: The kinase domain of human CDK12 (Uniprot: Q9NYV4; a.a; 715–1050); GST (N, cleaved yes); made in house; host or cells: Spodoptera frugiperda SF9 insect cells (Bac-to-Bac); CDK12/cyclin K co-infected with S. cerevisiae CAK1
Protocol: Finally, the capacity of small molecules to induce a ternary complex between CDK12/cyclin K and DDB1 in vitro was assessed by microscale thermophoresis (MST). Labeled DDB1ΔBPB was combined with purified CDK12/cyclin K, and fluorescence intensity was monitored with increasing compound concentrations.
Cell pellets were harvested 48 hours post infection via centrifugation and lysed in buffer A (50 mM Tris–HCl (pH 8.0), 200 mM NaCl, 10 mM imidazole, 0.5 mM tris(2-carboxyethyl) phosphine (TCEP)) supplemented with EDTA-free Pierce™ protease inhibitor tablet (Thermo Fisher Scientific). […] The concentrated protein at 2 mg mL^−1 was flash-frozen in liquid nitrogen and stored at −80 °C.
Full-length S. cerevisiae CAK1 (Uniprot: P43568) with an N-terminal His6 tag was subcloned into pFastBac 1 vector. […] The eluted CDK12/cyclin K complex was concentrated to 2 mg mL^−1, flash-frozen in liquid nitrogen and stored at −80 °C.
A protocol to assess ternary binding of molecular glues with CDK12/cycK and DDB1 by MST was established using published procedures for PROTAC interaction with bromodomains and E3 ubiquitin ligases.[38] His8-DDB1-ΔBPB was labeled with the MO-L018 Monolith™ His-tag Labeling Kit RED-tris-NTA 2nd Generation (NanoTemper Technologies) following the instruction manual. 100 nM dye was mixed with 200 nM DDB1 in 50 mM HEPES pH 7.5, 150 mM NaCl, 5% glycerol, 0.05% Tween, and incubated at room temperature for 30 min. […] MST traces were recorded using standard parameters: 5 s MST power off, 30 s MST power on and 5 s MST power off. Measurements were taken at −1 to 0 s (cold region) and 9–10 s (hot region). Data were analyzed using a fitting function derived from the law of mass action:1 [drawing 6] where f(c) is the fluorescence signal (Fnorm) at a given ligand concentration (c), B is Fnorm of fully liganded DDB1 at high ligand concentrations, U is Fnorm of DDB1 alone at low ligand concentrations, Kd is the dissociation constant or binding affinity, cT is the final concentration of DDB1 in the assay (Fig. 3G). For normalization, the data were first transformed using eqn (2) where y is the fraction bound, followed by fitting to eqn (3) (Fig. 5B–E).2 [drawing 7] 3 [drawing 8]

[3] = tested on: MDA-MB-231DDB1-shRNA cells; experiment: CellTiter-Glo viability assay, MDA-MB-231 DDB1-shRNA; type: cell-based, human; settings: Homo sapiens; MDA-MB-231 DDB1-shRNA; read-out: EC50 (DDB1 shRNA) cell viability
Description: For stable genetic knock-down of DDB1 in cells, predesigned and validated TRC2-pLKO-puro shRNA plasmids for DDB1 (TRCN0000082855 and TRCN0000082856), and a non-targeting shRNA plasmid (SHC001) were obtained from Millipore Sigma. All plasmids were purified using the Qiagen Maxiprep kit (Qiagen). FuGENE HD 6 transfection reagent (Promega) was used for transfection of plasmids and lentiviral gene/shRNA constructs. Mission lentiviral packaging mix (Millipore Sigma) was used to package lentiviral plasmids into lentiviral particles in HEK293T cells, as per manufacturer's protocols. The resultant virus was concentrated using Vivaspin 20 centrifugal concentrators (Sartorius). MDA-MB-231 and HEK293T cells were transduced with lentivirus. Stable knocked down DDB1 (shDDB1-231 and shDDB1-HEK293T) cells were generated after selection with the antibiotic puromycin, and genetic knockdown was confirmed by western blotting.
(§1) Cell viability was measured by Cell Titer Glo assay kit (Promega, USA). EC50 was determined from the nonlinear regression and a four-parameter algorithm on the GraphPad Prism software.

MDA-MB-231 cells = experiment: CellTiter-Glo viability assay, WT MDA-MB-231; type: cell-based; settings: Homo sapiens; wild type MDA-MB-231; read-out: EC50 (WT) cell viability
Description: MDA-MB-231 (human triple-negative breast cancer cells) and HEK293T (human embryonic kidney cells) were purchased from the American type culture collection (ATCC) and maintained in Dulbecco's modified Eagle's medium (DMEM) (Gibco) supplemented with 10% (v/v) heat-inactivated fetal bovine serum (FBS) (Gibco) and penicillin/streptomycin (100 U mL^−1 each). HiBiT-CCNK KI A549 cells, purchased from Promega, were maintained in F12 medium supplemented with 10% (v/v) heat-inactivated fetal bovine serum (FBS) (Gibco) and penicillin/streptomycin (100 U mL^−1 each). DDB1-knockdown MDA-MB-231 and DDB1-knockdown HEK293T cell lines were maintained in the same media formulation as their corresponding wild-type cell lines. All cell lines were cultured at 37 °C in an incubator with CO2 levels maintained at 5%.
as §1

[4] = labeled DDB1 + CDK12/cyclin K, run #1, read-out: Kd ternary complex formation, replicate #1
[5] = labeled DDB1 + CDK12/cyclin K, run #2, read-out: Kd ternary complex formation, replicate #2
[6] = labeled DDB1 + CDK12/cyclin K, run #3, read-out: Kd ternary complex formation, replicate #3
[7] = labeled DDB1ΔBPB 10 nM + CDK12/cyclin K 1000 nM, mean of replicates, read-out: Kd ternary complex formation (average)

T1 sequence (Q16531 with tags, fused parts or gaps DEL396-705): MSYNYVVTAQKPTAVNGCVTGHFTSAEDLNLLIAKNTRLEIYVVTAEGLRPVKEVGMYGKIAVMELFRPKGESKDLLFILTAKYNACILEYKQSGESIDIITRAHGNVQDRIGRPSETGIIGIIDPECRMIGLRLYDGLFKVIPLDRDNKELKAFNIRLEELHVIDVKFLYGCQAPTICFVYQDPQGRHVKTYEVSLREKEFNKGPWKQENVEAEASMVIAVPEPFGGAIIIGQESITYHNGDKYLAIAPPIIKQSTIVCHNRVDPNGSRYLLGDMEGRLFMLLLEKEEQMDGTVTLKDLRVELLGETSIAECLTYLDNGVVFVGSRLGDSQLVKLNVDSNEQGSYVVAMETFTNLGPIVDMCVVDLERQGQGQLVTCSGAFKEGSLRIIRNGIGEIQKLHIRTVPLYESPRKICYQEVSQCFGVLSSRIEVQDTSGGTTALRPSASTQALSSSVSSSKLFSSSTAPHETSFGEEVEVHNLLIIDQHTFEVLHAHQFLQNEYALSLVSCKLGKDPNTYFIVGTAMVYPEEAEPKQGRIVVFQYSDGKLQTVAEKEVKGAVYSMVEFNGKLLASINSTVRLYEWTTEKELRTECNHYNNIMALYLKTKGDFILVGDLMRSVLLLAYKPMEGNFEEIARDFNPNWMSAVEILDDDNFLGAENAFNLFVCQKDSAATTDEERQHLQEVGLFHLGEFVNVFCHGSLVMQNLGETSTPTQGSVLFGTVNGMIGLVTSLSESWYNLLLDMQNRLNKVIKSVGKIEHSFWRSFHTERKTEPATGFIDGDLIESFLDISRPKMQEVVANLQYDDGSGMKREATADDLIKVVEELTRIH
T1 sequence (Q9NYV4 715-1050, stated change not applied): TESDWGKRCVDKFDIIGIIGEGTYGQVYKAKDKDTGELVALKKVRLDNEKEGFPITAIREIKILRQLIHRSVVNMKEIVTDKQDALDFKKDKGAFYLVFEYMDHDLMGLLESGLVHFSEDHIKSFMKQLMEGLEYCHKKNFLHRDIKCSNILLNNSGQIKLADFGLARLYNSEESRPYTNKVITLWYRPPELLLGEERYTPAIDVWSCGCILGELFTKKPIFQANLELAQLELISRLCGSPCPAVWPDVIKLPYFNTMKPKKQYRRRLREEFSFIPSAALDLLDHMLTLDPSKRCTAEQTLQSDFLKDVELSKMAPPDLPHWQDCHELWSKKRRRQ
T1 sequence (O75909 11-267 partner limits assumed): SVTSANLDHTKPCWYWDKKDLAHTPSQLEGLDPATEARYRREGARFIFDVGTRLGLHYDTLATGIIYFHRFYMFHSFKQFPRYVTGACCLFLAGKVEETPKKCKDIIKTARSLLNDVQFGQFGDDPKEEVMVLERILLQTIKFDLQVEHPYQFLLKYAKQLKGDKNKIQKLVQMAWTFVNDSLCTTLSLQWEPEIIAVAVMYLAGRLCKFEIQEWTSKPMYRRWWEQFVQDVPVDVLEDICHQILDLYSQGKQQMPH

SMILES	Kd (CDK12/cyclin K + DDB1; [4])	Kd (CDK12/cyclin K + DDB1; [5])	Kd (CDK12/cyclin K + DDB1; [6])	Kd (CDK12/cyclin K + DDB1; [7])	EC50 [3]	EC50 (MDA-MB-231 cells)	cyclin K degradation (immunoblot) (cyclin K [1])	cyclin K nuclear intensity compared to control (cyclin K [2]; MDA-MB-231 cells, 0.5 µM, 2 h)	cyclin K nuclear intensity compared to control (cyclin K [2])	ability to induce ternary complex (CDK12/cyclin K + DDB1; labeled DDB1ΔBPB + CDK12/cyclin K)
C#CCCC1(CCC(=O)N2CCN(c3nc(NCc4nc5cc(Cl)c(Cl)cc5[nH]4)c4ncn(-c5cnn(C)c5)c4n3)CC2)N=N1 [SR-4784-PAP, 3-(3-(But-3-yn-1-yl)-3H-diazirin-3-yl)-1-(4-(6-(((5,6-dichloro-1H-benzo[d]imidazol-2-yl)methyl)amino)-9-(1-methyl-1H-pyrazol-4-yl)-9H-purin-2-yl)piperazin-1-yl)propan-1-one]							degraded cyclin K in a proteasome-dependent manner			
CCc1cnn2c(NCc3ccc[n+]([O-])c3)cc(N3CCCC[C@H]3CCO)nc12 [dinaciclib, reference compound]									not affected	lacked the ability to induce a ternary complex
Cn1cc(-c2cnn3c(NCc4nc5cc(Cl)c(Cl)cc5[nH]4)nc(N4CCOCC4)nc23)cn1 [MR-1014, N-((5,6-Dichloro-1H-benzo[d]imidazol-2-yl)methyl)-8-(1-methyl-1H-pyrazol-4-yl)-2-morpholinopyrazolo[1,5-a][1,3,5]triazin-4-amine]	409 ± 117 nM	347 ± 98.3 nM	528 ± 295 nM	428 nM				reduced		
Clc1cccc2nc(CNc3cc(N4CCNCC4)nn4c(-c5ccsc5)cnc34)[nH]c12 [MR-1110, N-((7-Chloro-1H-benzo[d]imidazol-2-yl)methyl)-6-(piperazin-1-yl)-3-(thiophen-3-yl)imidazo[1,2-b]pyridazin-8-amine]	24.3 ± 9 nM	31.3 ± 17.4 nM	37.6 ± 23.3 nM	31.1 ± 6.7 nM				reduced		

The next lines start with results.

Kd (CDK12/cyclin K + DDB1; [4])	Kd (CDK12/cyclin K + DDB1; [5])	Kd (CDK12/cyclin K + DDB1; [6])	Kd (CDK12/cyclin K + DDB1; [7])	EC50 [3]	EC50 (MDA-MB-231 cells)	SMILES	cyclin K degradation (immunoblot) (cyclin K [1])	cyclin K nuclear intensity compared to control (cyclin K [2]; MDA-MB-231 cells, 0.5 µM, 2 h)	cyclin K nuclear intensity compared to control (cyclin K [2])	ability to induce ternary complex (CDK12/cyclin K + DDB1; labeled DDB1ΔBPB + CDK12/cyclin K)
137 ± 33.3 nM	122 ± 54.6 nM	152 ± 63.7 nM	137 ± 15 nM			CN1CC=C(c2cn3c(-c4cnn(C(F)F)c4)cnc3c(NCc3nc4cc(Cl)c(Cl)cc4[nH]3)n2)CC1 [MR-1187, N-((5,6-Dichloro-1H-benzo[d]imidazol-2-yl)methyl)-3-(1-(difluoromethyl)-1H-pyrazol-4-yl)-6-(1-methyl-1,2,3,6-tetrahydropyridin-4-yl)imidazo[1,2-a]pyrazin-8-amine]		reduced		
				796 nM	263 nM	Cn1cc(-n2cnc3c(NCc4nc5cc(Cl)c(Cl)cc5[nH]4)nc(N4CCNCC4)nc32)cn1 [SR-4784, N-((5,6-dichloro-1H-benzo[d]imidazol-2-yl)methyl)-9-(1-methyl-1H-pyrazol-4-yl)-2-(piperazin-1-yl)-9H-purin-6-amine]	induced cyclin K degradation			
